{"source": "paper PMC5218480", "about": "(PLoS ONE, 2017)", "tested_on": "MV-4-11 cells", "assay": "Gene expression microarray analysis (Affymetrix PrimeView) and GSEA", "format": "cell-based, human", "set-up": "RFU PODN (11730768_x_at) / Fold change /veh PODN (11730768_x_at) / RFU LINC00158 (11744669_a_at) / Fold change /veh LINC00158 (11744669_a_at) / RFU DUSP10 (11751237_a_at) / Fold change /veh DUSP10 (11751237_a_at) / RFU ID3 (11757404_x_at) / Fold change /veh ID3 (11757404_x_at) / RFU PLEKHG5 (11737974_s_at) / Fold change /veh PLEKHG5 (11737974_s_at) / RFU LRRC4B (11730491_at) / Fold change /veh LRRC4B (11730491_at) / RFU GIMAP4 (11747438_a_at) / Fold change /veh GIMAP4 (11747438_a_at) / RFU KRT8 (11758183_x_at) / Fold change /veh KRT8 (11758183_x_at) / RFU CNN1 (11734310_a_at) / Fold change /veh CNN1 (11734310_a_at) / RFU VPS37D (11726825_at) / Fold change /veh VPS37D (11726825_at) / RFU C10orf10 (11716522_x_at) / Fold change /veh C10orf10 (11716522_x_at) / RFU KIR2DL2 /// KIR2DL4 /// KIR2DL5A /// KIR2DL5B /// KIR2DS1 /// KIR2DS2 /// KIR2DS3 /// KIR2DS4 /// KIR3DL3 /// KIR3DL3 /// KIR3DS1 (11738374_at) / Fold change /veh KIR2DL2 /// KIR2DL4 /// KIR2DL5A /// KIR2DL5B /// KIR2DS1 /// KIR2DS2 /// KIR2DS3 /// KIR2DS4 /// KIR3DL3 /// KIR3DL3 /// KIR3DS1 (11738374_at) / RFU C1QL1 (11718748_at) / Fold change /veh C1QL1 (11718748_at) / RFU TMPRSS4 (11747572_a_at) / Fold change /veh TMPRSS4 (11747572_a_at) / RFU HAMP (11756126_x_at) / Fold change /veh HAMP (11756126_x_at) / RFU RNFT2 (11725882_a_at) / Fold change /veh RNFT2 (11725882_a_at) / RFU NR4A2 (11747474_a_at) / Fold change /veh NR4A2 (11747474_a_at) / RFU ABCC12 (11746883_a_at) / Fold change /veh ABCC12 (11746883_a_at) / RFU TMEM136 (11760407_x_at) / Fold change /veh TMEM136 (11760407_x_at) / RFU CLDN22 /// WWC2 (11732394_at) / Fold change /veh CLDN22 /// WWC2 (11732394_at) / RFU HLA-DPB1 (11760878_x_at) / Fold change /veh HLA-DPB1 (11760878_x_at) / RFU SPINT1 (11716480_a_at) / Fold change /veh SPINT1 (11716480_a_at) / RFU GAP43 (11754022_s_at) / Fold change /veh GAP43 (11754022_s_at) / RFU A4GNT (11735810_at) / Fold change /veh A4GNT (11735810_at) / RFU PRB3 (11715151_x_at) / Fold change /veh PRB3 (11715151_x_at) / RFU TUBB4B (11761932_at) / Fold change /veh TUBB4B (11761932_at) / RFU CAPN14 (11732068_a_at) / Fold change /veh CAPN14 (11732068_a_at) / RFU TMCC2 (11721928_a_at) / Fold change /veh TMCC2 (11721928_a_at) / RFU IRGQ (11745062_a_at) / Fold change /veh IRGQ (11745062_a_at) / RFU FAM174B (11720279_a_at) / Fold change /veh FAM174B (11720279_a_at) / RFU TMPRSS4 (11748680_a_at) / Fold change /veh TMPRSS4 (11748680_a_at) / RFU FAM212B (11763350_a_at) / Fold change /veh FAM212B (11763350_a_at) / RFU PLEKHG5 (11743358_a_at) / Fold change /veh PLEKHG5 (11743358_a_at) / RFU ZSCAN30 (11745921_a_at) / Fold change /veh ZSCAN30 (11745921_a_at) / RFU CMKLR1 (11741424_a_at) / Fold change /veh CMKLR1 (11741424_a_at) / RFU LOC101060620 /// MAPK8IP1 (11723275_at) / Fold change /veh LOC101060620 /// MAPK8IP1 (11723275_at) / RFU SPTSSB (11747773_x_at) / Fold change /veh SPTSSB (11747773_x_at) / RFU PRSS12 (11739890_at) / Fold change /veh PRSS12 (11739890_at) / RFU BIN1 (11741810_x_at) / Fold change /veh BIN1 (11741810_x_at) / RFU WNT11 (11732464_a_at) / Fold change /veh WNT11 (11732464_a_at) / RFU C10orf10 (11716521_a_at) / Fold change /veh C10orf10 (11716521_a_at) / RFU C5orf56 (11738089_at) / Fold change /veh C5orf56 (11738089_at) / RFU CYB561 (11721691_x_at) / Fold change /veh CYB561 (11721691_x_at) / RFU ANKRD19P (11752326_a_at) / Fold change /veh ANKRD19P (11752326_a_at) / RFU OR2T12 /// OR2T33 /// OR2T8 (11738714_s_at) / Fold change /veh OR2T12 /// OR2T33 /// OR2T8 (11738714_s_at) / RFU VCAN (11748164_a_at) / Fold change /veh VCAN (11748164_a_at) / RFU JSRP1 (11732532_at) / Fold change /veh JSRP1 (11732532_at) / RFU KRTAP10-11 (11738290_x_at) / Fold change /veh KRTAP10-11 (11738290_x_at) / RFU MYO3A (11730013_a_at) / Fold change /veh MYO3A (11730013_a_at) / RFU EBF3 (11725865_a_at) / Fold change /veh EBF3 (11725865_a_at) / RFU CAMK2N1 (11719241_x_at) / Fold change /veh CAMK2N1 (11719241_x_at) / RFU C5orf56 (11738088_a_at) / Fold change /veh C5orf56 (11738088_a_at) / RFU OLFML3 (11715873_a_at) / Fold change /veh OLFML3 (11715873_a_at) / RFU LOC100653217 /// NTM (11731650_a_at) / Fold change /veh LOC100653217 /// NTM (11731650_a_at) / RFU MAPK11 (11762145_a_at) / Fold change /veh MAPK11 (11762145_a_at) / RFU FIZ1 (11724087_x_at) / Fold change /veh FIZ1 (11724087_x_at) / RFU OASL (11726364_x_at) / Fold change /veh OASL (11726364_x_at) / RFU SOX15 (11748057_x_at) / Fold change /veh SOX15 (11748057_x_at) / RFU CD79A (11719716_a_at) / Fold change /veh CD79A (11719716_a_at) / RFU HIST1H1D (11736915_at) / Fold change /veh HIST1H1D (11736915_at) / RFU CASKIN2 (11723855_a_at) / Fold change /veh CASKIN2 (11723855_a_at) / RFU LOC730098 (11760151_x_at) / Fold change /veh LOC730098 (11760151_x_at) / RFU OR4N2 (11742367_at) / Fold change /veh OR4N2 (11742367_at) / RFU PRRT2 (11749266_a_at) / Fold change /veh PRRT2 (11749266_a_at) / RFU SNX32 (11753110_a_at) / Fold change /veh SNX32 (11753110_a_at) / RFU CDHR5 (11726645_a_at) / Fold change /veh CDHR5 (11726645_a_at) / RFU RCAN1 (11760418_a_at) / Fold change /veh RCAN1 (11760418_a_at) / RFU FAM167A (11723789_a_at) / Fold change /veh FAM167A (11723789_a_at) / RFU FAM26E (11764081_at) / Fold change /veh FAM26E (11764081_at) / RFU ISYNA1 (11749810_s_at) / Fold change /veh ISYNA1 (11749810_s_at) / RFU ACY1 (11761880_at) / Fold change /veh ACY1 (11761880_at) / RFU 11764098_at / Fold change /veh 11764098_at / RFU SAMD14 (11745864_x_at) / Fold change /veh SAMD14 (11745864_x_at) / RFU NPB (11741838_a_at) / Fold change /veh NPB (11741838_a_at) / RFU TMPRSS6 (11731388_a_at) / Fold change /veh TMPRSS6 (11731388_a_at) / RFU KRTAP10-2 (11738614_at) / Fold change /veh KRTAP10-2 (11738614_at) / RFU ARHGAP8 /// PRR5-ARHGAP8 (11727945_x_at) / Fold change /veh ARHGAP8 /// PRR5-ARHGAP8 (11727945_x_at) / RFU KRTAP5-7 /// NADSYN1 (11734609_at) / Fold change /veh KRTAP5-7 /// NADSYN1 (11734609_at) / RFU RASL12 (11751679_a_at) / Fold change /veh RASL12 (11751679_a_at) / RFU CDKN2B (11736163_a_at) / Fold change /veh CDKN2B (11736163_a_at) / RFU PRF1 (11729649_at) / Fold change /veh PRF1 (11729649_at) / RFU, ZNF638 /// ZNF638-IT1 / Fold change vs veh, ZNF638 /// ZNF638-IT1 / RFU, PANK3 / Fold change vs veh, PANK3 / RFU, SH3YL1 / Fold change vs veh, SH3YL1 / RFU, ZEB2 / Fold change vs veh, ZEB2 / RFU, NRIP1 / Fold change vs veh, NRIP1 / RFU, PTTG1IP / Fold change vs veh, PTTG1IP / RFU, CAPN2 / Fold change vs veh, CAPN2 / RFU, MED14 / Fold change vs veh, MED14 / RFU, SNORA58 / Fold change vs veh, SNORA58 / RFU, C1orf63 / Fold change vs veh, C1orf63 / RFU, LRRFIP1 / Fold change vs veh, LRRFIP1 / RFU, NDUFAF7 / Fold change vs veh, NDUFAF7 / RFU, SLC12A2 / Fold change vs veh, SLC12A2 / RFU, IBTK / Fold change vs veh, IBTK / RFU, ESF1 / Fold change vs veh, ESF1 / Fold change vs veh, TMEM50B / RFU, TAOK1 / Fold change vs veh, TAOK1 / RFU, ACBD3 / Fold change vs veh, ACBD3 / RFU, TMA16 / Fold change vs veh, TMA16 / RFU, RWDD3 / Fold change vs veh, RWDD3 / RFU, BCAT1 / Fold change vs veh, BCAT1 / RFU, EDEM3 / Fold change vs veh, EDEM3 / RFU, TMEM33 / Fold change vs veh, TMEM33 / RFU, WDR75 / Fold change vs veh, WDR75 / RFU, AHCTF1 / Fold change vs veh, AHCTF1 / RFU, TFRC / Fold change vs veh, TFRC / RFU, ZDHHC17 / Fold change vs veh, ZDHHC17 / RFU, NOM1 / Fold change vs veh, NOM1 / RFU, ARL8B / Fold change vs veh, ARL8B / RFU, ZBTB11 / Fold change vs veh, ZBTB11 / RFU, TAMM41 / Fold change vs veh, TAMM41 / RFU, KIAA1704 /// LOC100996395 / Fold change vs veh, KIAA1704 /// LOC100996395 / RFU, ING1 / Fold change vs veh, ING1 / RFU, TRMT61B / Fold change vs veh, TRMT61B / RFU, FUBP3 / Fold change vs veh, FUBP3 / RFU, TP53 / Fold change vs veh, TP53 / RFU, TNKS2 / Fold change vs veh, TNKS2 / RFU, ZFP14 / Fold change vs veh, ZFP14 / RFU, ACTR2 / Fold change vs veh, ACTR2 / RFU, PPP3R1 / Fold change vs veh, PPP3R1 / RFU, PIK3R1 / Fold change vs veh, PIK3R1 / RFU, HNRNPA1 / Fold change vs veh, HNRNPA1 / RFU, RNF170 / Fold change vs veh, RNF170 / RFU, ZNF28 / Fold change vs veh, ZNF28 / RFU, RNGTT / Fold change vs veh, RNGTT / RFU, OGT / Fold change vs veh, OGT / RFU, BRD1 / Fold change vs veh, BRD1 / RFU, MARS / Fold change vs veh, MARS / RFU, ZNF655 / Fold change vs veh, ZNF655 / RFU, FAHD1 / Fold change vs veh, FAHD1 / RFU, BDP1 / Fold change vs veh, BDP1 / RFU, LRRCC1 / Fold change vs veh, LRRCC1 / RFU, ARID1A / Fold change vs veh, ARID1A / RFU, ZNF146 / Fold change vs veh, ZNF146 / RFU, ZNF330 / Fold change vs veh, ZNF330 / RFU, GPN3 / Fold change vs veh, GPN3 / RFU, C9orf123 / Fold change vs veh, C9orf123 / RFU, N4BP2L2 / Fold change vs veh, N4BP2L2 / RFU, ARFIP1 / Fold change vs veh, ARFIP1 / RFU, FAM179B / Fold change vs veh, FAM179B / RFU, BCL10 / Fold change vs veh, BCL10 / RFU, UHRF1BP1L / Fold change vs veh, UHRF1BP1L / RFU, BET1 / Fold change vs veh, BET1 / RFU, CNOT2 / Fold change vs veh, CNOT2 / RFU, ZNF268 / Fold change vs veh, ZNF268 / Fold change vs veh, ZNF507 / RFU, DGCR2 / Fold change vs veh, DGCR2 / RFU, WDSUB1 / Fold change vs veh, WDSUB1 / Fold change vs veh, HSP90B1 /// MIR3652 / RFU, ADSS / Fold change vs veh, ADSS / RFU, GK / Fold change vs veh, GK / RFU, ZNF148 / Fold change vs veh, ZNF148 / RFU, TAF9 / Fold change vs veh, TAF9 / RFU, SLC1A5 / Fold change vs veh, SLC1A5 / RFU, SLMO2 / Fold change vs veh, SLMO2 / RFU, ABCC4 / Fold change vs veh, ABCC4 / RFU, LOC101060439 /// RAP1B / Fold change vs veh, LOC101060439 /// RAP1B / RFU, RFX7 / Fold change vs veh, RFX7 / RFU, GTPBP10 / Fold change vs veh, GTPBP10 / RFU, CNEP1R1 / Fold change vs veh, CNEP1R1 / RFU, BIVM-ERCC5 /// ERCC5 / Fold change vs veh, BIVM-ERCC5 /// ERCC5 / RFU, ILF3 / Fold change vs veh, ILF3 / RFU 11762660_at / Fold change /veh 11762660_at / RFU VCAN (11757783_s_at) / Fold change /veh VCAN (11757783_s_at) / RFU DDX43 (11728927_at) / Fold change /veh DDX43 (11728927_at) / RFU KRT8 (11758188_x_at) / Fold change /veh KRT8 (11758188_x_at) / RFU NKD1 (11759106_at) / Fold change /veh NKD1 (11759106_at) / RFU SRD5A1 (11742802_a_at) / Fold change /veh SRD5A1 (11742802_a_at) / RFU TPSAB1 /// TPSB2 (11721975_s_at) / Fold change /veh TPSAB1 /// TPSB2 (11721975_s_at) / RFU GSTM3 (11746129_a_at) / Fold change /veh GSTM3 (11746129_a_at) / RFU IL23R (11737362_x_at) / Fold change /veh IL23R (11737362_x_at) / RFU TMEM51 (11727254_a_at) / Fold change /veh TMEM51 (11727254_a_at) / RFU PIWIL2 (11732686_x_at) / Fold change /veh PIWIL2 (11732686_x_at) / RFU ORM1 (11744905_x_at) / Fold change /veh ORM1 (11744905_x_at) / RFU CCDC152 (11743942_at) / Fold change /veh CCDC152 (11743942_at) / RFU ECM1 (11717891_a_at) / Fold change /veh ECM1 (11717891_a_at) / RFU IL23R (11748794_a_at) / Fold change /veh IL23R (11748794_a_at) / RFU TNFAIP8L3 (11732012_x_at) / Fold change /veh TNFAIP8L3 (11732012_x_at) / RFU MBOAT4 (11741988_at) / Fold change /veh MBOAT4 (11741988_at) / RFU 11764193_at / Fold change /veh 11764193_at / RFU TMEM53 (11763286_at) / Fold change /veh TMEM53 (11763286_at) / RFU MAGEB2 (11727129_at) / Fold change /veh MAGEB2 (11727129_at) / RFU TMEM200A (11744735_a_at) / Fold change /veh TMEM200A (11744735_a_at) / RFU CCDC152 (11751479_a_at) / Fold change /veh CCDC152 (11751479_a_at) / RFU FAM211A (11726209_a_at) / Fold change /veh FAM211A (11726209_a_at) / RFU RGS16 (11746705_a_at) / Fold change /veh RGS16 (11746705_a_at) / RFU VCAN (11755009_s_at) / Fold change /veh VCAN (11755009_s_at) / RFU RHOB (11743442_s_at) / Fold change /veh RHOB (11743442_s_at) / RFU RGS16 (11720943_a_at) / Fold change /veh RGS16 (11720943_a_at) / RFU RGS16 (11720944_at) / Fold change /veh RGS16 (11720944_at) / RFU, VPS4B / Fold change vs veh, VPS4B / RFU, CREB1 / Fold change vs veh, CREB1 / RFU, DNAJC13 / Fold change vs veh, DNAJC13 / RFU, GNAQ / Fold change vs veh, GNAQ / RFU, CDK5R1 / Fold change vs veh, CDK5R1 / RFU, ZRANB3 / Fold change vs veh, ZRANB3 / RFU, CUL4A / Fold change vs veh, CUL4A / RFU, CCNY / Fold change vs veh, CCNY / RFU, UFL1 / Fold change vs veh, UFL1 / RFU, COG3 / Fold change vs veh, COG3 / RFU, DIAPH2 / Fold change vs veh, DIAPH2 / RFU, SKA2 / Fold change vs veh, SKA2 / RFU, AFF3 / Fold change vs veh, AFF3 / RFU, LMF1 / Fold change vs veh, LMF1 / RFU, IPO11 / Fold change vs veh, IPO11 / RFU, DFFB / Fold change vs veh, DFFB / RFU, FOXP1 / Fold change vs veh, FOXP1 / RFU, CARD8 / Fold change vs veh, CARD8 / RFU, STRN3 / Fold change vs veh, STRN3 / RFU, ADK / Fold change vs veh, ADK / RFU, RASSF2 / Fold change vs veh, RASSF2 / RFU, WIPF1 / Fold change vs veh, WIPF1 / RFU, LARP1B / Fold change vs veh, LARP1B / RFU, RASA1 / Fold change vs veh, RASA1 / RFU, RB1 / Fold change vs veh, RB1 / RFU, PPFIA1 / Fold change vs veh, PPFIA1 / RFU, MAT2A / Fold change vs veh, MAT2A / RFU, CCT5 / Fold change vs veh, CCT5 / RFU, WDR92 / Fold change vs veh, WDR92 / RFU, CUX1 / Fold change vs veh, CUX1 / RFU, TTC7A / Fold change vs veh, TTC7A / RFU, TMEM135 / Fold change vs veh, TMEM135 / RFU, DEPTOR / Fold change vs veh, DEPTOR / RFU, CPM / Fold change vs veh, CPM / RFU, DNAJB6 / Fold change vs veh, DNAJB6 / RFU, CACNA2D3 / Fold change vs veh, CACNA2D3 / RFU, DTX4 / Fold change vs veh, DTX4 / RFU, TFCP2 / Fold change vs veh, TFCP2 / RFU, GMCL1 /// GMCL1P1 / Fold change vs veh, GMCL1 /// GMCL1P1 / RFU, AEBP2 / Fold change vs veh, AEBP2 / RFU, SNHG1 /// SNORD22 /// SNORD25 /// SNORD26 /// SNORD27 /// SNORD28 /// SNORD29 /// SNORD31 / Fold change vs veh, SNHG1 /// SNORD22 /// SNORD25 /// SNORD26 /// SNORD27 /// SNORD28 /// SNORD29 /// SNORD31 / Fold change (Aza/veh), C12orf56 (ProbeSet 11735607_a_at) / Fold change (ACY-1035/veh), C12orf56 (ProbeSet 11735607_a_at) / Fold change (Aza/veh), FGFR1OP (ProbeSet 11751329_s_at) / Fold change (ACY-1035/veh), FGFR1OP (ProbeSet 11751329_s_at) / Fold change (Aza/veh), VPS36 (ProbeSet 11739960_a_at) / Fold change (ACY-1035/veh), VPS36 (ProbeSet 11739960_a_at) / RFU SYPL1 (11715823_x_at) / Fold change /veh SYPL1 (11715823_x_at) / RFU IGFBP7 (11715501_s_at) / Fold change /veh IGFBP7 (11715501_s_at) / RFU REEP3 (11722064_at) / Fold change /veh REEP3 (11722064_at) / RFU IGLL1 (11728026_x_at) / Fold change /veh IGLL1 (11728026_x_at): dose or concentration left out as unconfirmed", "conditions": "ProbeSet 11715478_a_at; LIST B", "data": [{"molecule": "Nc1ccc(-c2cccs2)cc1NC(=O)c1ccc2c(c1)cc(C1CC1)n2CCN1CCOCC1", "note": "[ACY-1035]", "values": [{"measurement": "RFU, TFRC", "result": 135.12, "unit": "RFU"}]}]}
